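GI50 is the concentration that inhibits growth by half. Definition used: TGI = concentration required for complete inhibition of growth.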
Columns and labels:
Assay in all cases: DTP human tumour cell line panel, 384-well format
786-0 renal = test system: 786-0 renal
A498 renal = test system: A498 renal
A549 NSCLC = test system: A549 NSCLC
ACHN renal = test system: ACHN renal
BT-549 breast = test system: BT-549 breast
CAKI-1 renal = test system: CAKI-1 renal
CCRF-CEM leukemia = test system: CCRF-CEM leukemia
COLO 205 colon = test system: COLO 205 colon
DU-145 prostate = test system: DU-145 prostate
EKVX NSCLC = test system: EKVX NSCLC
HCC-2998 colon = test system: HCC-2998 colon
HCT-116 colon = test system: HCT-116 colon
HCT-15 colon = test system: HCT-15 colon
HL-60(TB) leukemia = test system: HL-60(TB) leukemia
HOP-62 NSCLC = test system: HOP-62 NSCLC
HOP-92 NSCLC = test system: HOP-92 NSCLC
HS 578T breast = test system: HS 578T breast
HT29 colon = test system: HT29 colon
IGROV1 ovarian = test system: IGROV1 ovarian
K-562 leukemia = test system: K-562 leukemia
KM12 colon = test system: KM12 colon
LOX IMVI melanoma = test system: LOX IMVI melanoma
M14 melanoma = test system: M14 melanoma
MALME-3M melanoma = test system: MALME-3M melanoma
MCF7 breast = test system: MCF7 breast
MDA-MB-231 breast = test system: MDA-MB-231 breast
MDA-MB-435 melanoma = test system: MDA-MB-435 melanoma
MDA-MB-468 breast = test system: MDA-MB-468 breast
MOLT-4 leukemia = test system: MOLT-4 leukemia
NCI-H226 lung = test system: NCI-H226 lung
NCI-H23 lung = test system: NCI-H23 lung
NCI-H322M lung = test system: NCI-H322M lung
NCI-H460 NSCLC = test system: NCI-H460 NSCLC
NCI-H522 lung = test system: NCI-H522 lung
NCI/ADR-RES ovarian = test system: NCI/ADR-RES ovarian
OVCAR-3 ovarian = test system: OVCAR-3 ovarian
OVCAR-4 ovarian = test system: OVCAR-4 ovarian
OVCAR-5 ovarian = test system: OVCAR-5 ovarian
OVCAR-8 ovarian = test system: OVCAR-8 ovarian
PC-3 prostate = test system: PC-3 prostate
RPMI-8226 leukemia = test system: RPMI-8226 leukemia
RXF 393 renal = test system: RXF 393 renal
SF-268 CNS = test system: SF-268 CNS
SF-295 CNS = test system: SF-295 CNS
SF-539 CNS = test system: SF-539 CNS
SK-MEL-28 melanoma = test system: SK-MEL-28 melanoma
SK-MEL-5 melanoma = test system: SK-MEL-5 melanoma
SK-OV-3 ovarian = test system: SK-OV-3 ovarian
SN12C renal = test system: SN12C renal
SNB-19 CNS = test system: SNB-19 CNS
SNB-75 CNS = test system: SNB-75 CNS
SR leukemia = test system: SR leukemia
SW-620 colon = test system: SW-620 colon
T-47D breast = test system: T-47D breast
TK-10 renal = test system: TK-10 renal
U251 glioblastoma = test system: U251 glioblastoma
UACC-257 melanoma = test system: UACC-257 melanoma
UO-31 renal = test system: UO-31 renal

SMILES: CCC[C@H](Nc1nc(-c2ccc(NC(=O)NCC)c(OC)c2)ncc1C)c1cccnc1
- GI50 ([…]-0 renal): 31.7 nM
- TGI (786-0 renal): 97.5 nM
- GI50 (A498 renal): 32.1 nM
- TGI (A498 renal): 479 nM
- GI50 (A549 NSCLC): 43.4 nM
- TGI (A549 NSCLC): 17400 nM
- GI50 (ACHN renal): 55 nM
- TGI (ACHN renal): 15600 nM
- GI50 (BT-549 breast): 22.7 nM
- TGI (BT-549 breast): 59 nM
- GI50 (CAKI-1 renal): 30 nM
- TGI (CAKI-1 renal): 14800 nM
- GI50 (CCRF-CEM leukemia): 20 nM
- TGI (CCRF-CEM leukemia): 34.5 nM
- GI50 (COLO 205 colon): 19.3 nM
- TGI (COLO 205 colon): 41.7 nM
- GI50 (DU-145 prostate): 30.7 nM
- TGI (DU-145 prostate): 91.6 nM
- GI50 (EKVX NSCLC): 43 nM
- TGI (EKVX NSCLC): 13300 nM
- GI50 (HCC-2998 colon): 22.9 nM
- TGI (HCC-2998 colon): 63 nM
- GI50 (HCT-116 colon): 26.3 nM
- TGI (HCT-116 colon): 74.5 nM
- GI50 (HCT-15 colon): 24 nM
- TGI (HCT-15 colon): 68.3 nM
- GI50 (HL-60(TB) leukemia): 16.5 nM
- TGI (HL-60(TB) leukemia): 30.4 nM
- GI50 (HOP-62 NSCLC): 33.1 nM
- TGI (HOP-62 NSCLC): 1180 nM
- GI50 (HOP-92 NSCLC): 30.4 nM
- TGI (HOP-92 NSCLC): 650 nM
- GI50 (HS 578T breast): 18.7 nM
- TGI (HS 578T breast): 37.3 nM
- GI50 (HT29 colon): 28.9 nM
- TGI (HT29 colon): 12600 nM
- GI50 (IGROV1 ovarian): 40.4 nM
- TGI (IGROV1 ovarian): 12400 nM
- GI50 (K-562 leukemia): 20.3 nM
- TGI (K-562 leukemia): 39.6 nM
- GI50 (KM12 colon): 26.4 nM
- TGI (KM12 colon): 1180 nM
- GI50 (LOX IMVI melanoma): 25.6 nM
- TGI (LOX IMVI melanoma): 67 nM
- GI50 (M14 melanoma): 21.8 nM
- TGI (M14 melanoma): 63.6 nM
- GI50 (MALME-3M melanoma): 32 nM
- TGI (MALME-3M melanoma): 15000 nM
- GI50 (MCF7 breast): 29.6 nM
- TGI (MCF7 breast): 1360 nM
- GI50 (MDA-MB-231 breast): 45.2 nM
- TGI (MDA-MB-231 breast): 17400 nM
- GI50 (MDA-MB-435 melanoma): 19.1 nM
- TGI (MDA-MB-435 melanoma): 38.2 nM
- GI50 (MDA-MB-468 breast): 16.8 nM
- TGI (MDA-MB-468 breast): 33.4 nM
- GI50 (MOLT-4 leukemia): 19.7 nM
- TGI (MOLT-4 leukemia): 34.2 nM
- GI50 (NCI-H226 lung): 26.9 nM
- TGI (NCI-H226 lung): 75.3 nM
- GI50 (NCI-H23 lung): 20.7 nM
- TGI (NCI-H23 lung): 51.6 nM
- GI50 (NCI-H322M lung): 40.8 nM
- TGI (NCI-H322M lung): 20600 nM
- GI50 (NCI-H460 NSCLC): 17.8 nM
- TGI (NCI-H460 NSCLC): 35.4 nM
- GI50 (NCI-H522 lung): 17.6 nM
- TGI (NCI-H522 lung): 37.8 nM
- GI50 (NCI/ADR-RES ovarian): 170 nM
- TGI (NCI/ADR-RES ovarian): 426 nM
- GI50 (OVCAR-3 ovarian): 19.5 nM
- TGI (OVCAR-3 ovarian): 43 nM
- GI50 (OVCAR-4 ovarian): 48.6 nM
- TGI (OVCAR-4 ovarian): 8480 nM
- GI50 (OVCAR-5 ovarian): 798 nM
- TGI (OVCAR-5 ovarian): 84800 nM
- GI50 (OVCAR-8 ovarian): 21.1 nM
- TGI (OVCAR-8 ovarian): 49.2 nM
- GI50 (PC-3 prostate): 38.5 nM
- TGI (PC-3 prostate): 16500 nM
- GI50 (RPMI-8226 leukemia): 18.2 nM
- TGI (RPMI-8226 leukemia): 32.8 nM
- GI50 (RXF 393 renal): 16.4 nM
- TGI (RXF 393 renal): 40.6 nM
- GI50 (SF-268 CNS): 27.3 nM
- TGI (SF-268 CNS): 169 nM
- GI50 (SF-295 CNS): 18.5 nM
- TGI (SF-295 CNS): 43.1 nM
- GI50 (SF-539 CNS): 18.3 nM
- TGI (SF-539 CNS): 36.5 nM
- GI50 (SK-MEL-28 melanoma): 95.6 nM
- TGI (SK-MEL-28 melanoma): 16200 nM
- GI50 (SK-MEL-5 melanoma): 17.5 nM
- TGI (SK-MEL-5 melanoma): 36.5 nM
- GI50 (SK-OV-3 ovarian): 34.8 nM
- TGI (SK-OV-3 ovarian): 1500 nM
- GI50 (SN12C renal): 37.9 nM
- TGI (SN12C renal): 10500 nM
- GI50 (SNB-19 CNS): 35.3 nM
- TGI (SNB-19 CNS): 10300 nM
- GI50 (SNB-75 CNS): 33.4 nM
- TGI (SNB-75 CNS): 11300 nM
- TGI (SR leukemia): 16.1 nM
- GI50 (SW-620 colon): 43.4 nM
- TGI (SW-620 colon): 16500 nM
- GI50 (T-47D breast): 71.9 nM
- TGI (T-47D breast): 14400 nM
- GI50 (TK-10 renal): 47.3 nM
- TGI (TK-10 renal): 16700 nM
- GI50 (U251 glioblastoma): 25 nM
- TGI (U251 glioblastoma): 64.6 nM
- GI50 (UACC-257 melanoma): 74.5 nM
- TGI (UACC-257 melanoma): 16400 nM
- GI50 (UO-31 renal): 62.8 nM
- TGI (UO-31 renal): 15300 nM
